Measured values as given in PMC12389735, “Polyoxypregnane Aryl Esters Prepared from Metaplexis japonica (Thunb.) Makino and Their Role in Reversing Multidrug Resistance in HepG2/Dox Cells” (Pharmaceuticals, 2025).

Key:
caspase 8 = test: Western blotting of caspase 8 expression in HepG2/Dox cells; type: cell-based, Human
Method: (§1) In 100 mm culture dishes, 1 × 10^6 cells in 10 mL medium were seeded and incubated for 24 h, and then incubated with the test sample in 10 mL fresh medium for another 24 h. Total proteins were extracted using RIPA cell lysis buffer containing PMSF while protein content was determined using the BCA kit. An equal amount of the protein sample was subjected to SDS-PAGE for separation and transferred to PVDF membranes. The membranes were blocked in 5% defat milk at RT for 1 h, and then incubated with the primary antibody of the protein of interest (P-gp, caspase 8 or caspase 9) or GAPDH (internal standard) at 4 °C overnight, and then with the secondary antibody at RT for 1 h. Protein bands were detected under the chemiluminescence scanner, while Image J was employed to analyze the gray value of the protein bands.

P-gp [1] = test: Western blotting of P-gp expression in HepG2/Dox cells; type: cell-based, Human; conditions: alone or in combination with paclitaxel
Method: as §1

Caco-2 cell monolayers = test: Bidirectional transport assay on Caco-2 cell monolayers; conditions: from ER values of less than 2
[2] = as above; conditions: human; for Papp B→A at 2 h: Caco-2, pH 7.4; for Papp A→B at 2 h, 2 μM: Caco-2, pH 7.4, Apparent permeability coefficient (Papp) from AP to BL; for Papp A→B at 2 h: Caco-2, pH 7.4, A→B Transport Papp, pH 7.40; for Papp A→B at 2 h / recovery at 2 h: compound 1, 1a 2 μM, digoxin 10 μM
Human ABCB1 = target: T1, Human ABCB1 (Homo sapiens, UniProt P08183); test: Surface plasmon resonance binding to full-length ABCB1 (Biacore); conditions: SPR; for Kd: CM5 chip, read-out: KD (equilibrium dissociation constant)
T1 construct: Flag; purchased MedChemExpress HY-P703175; host or cells: HEK293
Method: The human recombinant ABCB1 full-length protein (HEK293, Flag) (MedChemExpress, Monmouth Junction, NJ, USA; #HY-P703175) was coupled onto a CM5 sensor chip (Cytiva, Marlborough, MA, USA; #BR-1005-30) via carboxyl groups on the dextran. After incubation, a series of concentrations of compound 1 or 1a flowed through the protein–CM5 system. Binding was tested and analyzed using a Biacore K8 instrument (GE Healthcare, Chicago, IL, USA) and Biacore Insight evaluation software (https://www.cytivalifesciences.com/en/us, accessed on 5 August 2025) (Cytiva, Marlborough, MA, USA).

HepG2/Dox cells [3] = test: Annexin V/PI apoptosis by flow cytometry in HepG2/Dox cells; type: cell-based, Human; conditions: 24 h; for Apoptosis rates of HepG2/Dox cells: 10 μM in combination with 500 nM paclitaxel, vs PTX alone
Method: Cells were then incubated for another 24 h in 2 mL fresh medium containing the test samples. The medium and cells (digested by EDTA-free trypsin) were collected and centrifuged (1000 rpm, 5 min). The cells were then suspended in PBS and stained using the Annexin V/PI kit by following the procedures provided with the kit, and the apoptosis rate of cells with different treatments was analyzed using flow cytometry.

HepG2/Dox cells [4] = test: CCK-8 cell viability / reversal of P-gp-mediated MDR in HepG2/Dox cells; type: cell-based, Human; conditions: for Cytotoxicity to HepG2/Dox cells (viability): compound alone at 5 or 10 μM; for Cytotoxicity to HepG2/Dox cells (viability) / IC50: 48 h; for Reversal of resistance of HepG2/Dox cells to paclitaxel and vinblastine: non-cytotoxic concentrations (10 μM); for IC50: Homo sapiens, HepG2/Dox, anticancer drug alone, CCK-8, read-out: IC50 ± SD HepG2/Dox; for Fsen (fold increase in sensitivity): drug alone (reference); for Fres (fold of resistance): drug alone, IC50 in HepG2/Dox / IC50 in HepG2
caspase 9 = test: Western blotting of caspase 9 expression in HepG2/Dox cells; type: cell-based, Human
Method: as §1

P-gp [5] = target: T2, P-gp (Homo sapiens, UniProt P08183); test: Rhodamine 123 efflux assay for P-gp function in HepG2/Dox cells; type: cell-based; conditions: 10 μM, 5 μM Rh-123, 40 min; vs Rh-123 alone
T2 construct: Doxorubicin-induced P-gp overexpression HepG2/Dox subline was a gift from Prof; Fong; endogenous in cells; host or cells: HepG2/Dox (doxorubicin-induced P-gp-overexpressing subline of HepG2)
Method: After removal of the medium via centrifugation, the cells were washed with ice-cold PBS twice, resuspended in 300 μL ice-cold PBS, and transferred into flow cytometer tubes. Cellular fluorescence intensity was analyzed immediately using flow cytometry.

[6] = 10 μM combined with paclitaxel 0.5 μM
[7] = alone: paclitaxel 0.5 μM, compound 1 or 1a 10 μM
[8] = Caco-2, pH 7.4, A→B Transport Solution Recovery %
[9] = Caco-2, pH 7.4, B→A Transport Solution Recovery %

T1 sequence (P08183 whole entry): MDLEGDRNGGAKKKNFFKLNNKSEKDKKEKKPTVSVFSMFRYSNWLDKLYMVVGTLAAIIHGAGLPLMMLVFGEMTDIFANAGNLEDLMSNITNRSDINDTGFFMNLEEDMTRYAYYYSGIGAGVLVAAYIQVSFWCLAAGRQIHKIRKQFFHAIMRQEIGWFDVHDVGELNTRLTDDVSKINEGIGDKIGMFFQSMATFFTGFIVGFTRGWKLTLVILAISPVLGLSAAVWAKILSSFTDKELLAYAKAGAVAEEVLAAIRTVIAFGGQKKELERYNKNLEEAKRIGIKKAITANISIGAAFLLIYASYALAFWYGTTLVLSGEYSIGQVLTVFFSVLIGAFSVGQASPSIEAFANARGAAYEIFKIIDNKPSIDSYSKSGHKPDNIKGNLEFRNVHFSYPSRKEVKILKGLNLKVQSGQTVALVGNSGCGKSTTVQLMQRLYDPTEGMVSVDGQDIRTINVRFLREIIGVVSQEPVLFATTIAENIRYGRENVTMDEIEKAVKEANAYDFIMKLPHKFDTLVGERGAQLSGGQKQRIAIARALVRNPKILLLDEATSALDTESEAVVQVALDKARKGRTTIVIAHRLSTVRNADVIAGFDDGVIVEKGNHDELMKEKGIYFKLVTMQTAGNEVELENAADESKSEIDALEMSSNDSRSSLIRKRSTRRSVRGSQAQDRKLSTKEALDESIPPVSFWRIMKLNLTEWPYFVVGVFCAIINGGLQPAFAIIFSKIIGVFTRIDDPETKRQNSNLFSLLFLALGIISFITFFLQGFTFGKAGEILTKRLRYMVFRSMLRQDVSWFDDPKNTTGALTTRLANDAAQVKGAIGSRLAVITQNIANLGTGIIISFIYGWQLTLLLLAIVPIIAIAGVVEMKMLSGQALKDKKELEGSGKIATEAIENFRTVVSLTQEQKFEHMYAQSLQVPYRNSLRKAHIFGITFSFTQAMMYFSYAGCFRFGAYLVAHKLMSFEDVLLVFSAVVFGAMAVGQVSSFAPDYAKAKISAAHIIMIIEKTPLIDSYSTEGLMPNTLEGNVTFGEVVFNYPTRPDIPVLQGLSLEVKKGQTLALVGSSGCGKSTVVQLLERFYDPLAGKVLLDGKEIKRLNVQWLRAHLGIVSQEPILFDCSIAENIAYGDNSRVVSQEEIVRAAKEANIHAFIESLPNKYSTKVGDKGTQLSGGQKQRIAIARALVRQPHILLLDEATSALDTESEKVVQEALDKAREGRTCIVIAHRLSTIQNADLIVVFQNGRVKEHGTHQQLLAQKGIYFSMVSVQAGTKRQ
T2 sequence (P08183 whole entry): as above

CC(O)C1(O)CCC2(O)C3CCC4CC(O)CCC4(C)C3CC(OC(=O)C=Cc3ccccc3)C12C [Compound 1, 3β,12β,14β,17β,20(S)-pentahydroxy-5α-pregnan-12β-O-(E)-cinnamate]
Expression of caspase 8 (caspase 8; [6]): did not change | Expression of caspase 8 (caspase 8; [7]): did not change | Expression level of cellular P-gp (P-gp [1]): did not influence | P-gp substrate status (Caco-2 cell monolayers): not P-gp substrates | Papp B→A at 2 h [2]: 7.71 ± 0.61 ×10⁻⁶ cm/s | Papp A→B at 2 h, 2 μM [2]: 9.28 ×10⁻⁶ cm/s | Papp A→B at 2 h [2]: 9.28 ± 0.88 ×10⁻⁶ cm/s | recovery at 2 h [2, 8]: 44.6 ± 2.3% | recovery at 2 h [2, 9]: 50.4 ± 1.7% | Ka (association rate constant) (Human ABCB1): 65800 M⁻¹ s⁻¹ | Kd (dissociation rate constant) (Human ABCB1): 0.364 s⁻¹ | Kd (Human ABCB1): 5.53 µM | Ka (association rate constant) (Human ABCB1; listed as compound 1): > 10^4 M^−1s^−1 | Kd (dissociation rate constant) (Human ABCB1; listed as compound 1): > 10^−1 s^−1 | Apoptosis rates of HepG2/Dox cells (HepG2/Dox cells [3]): significantly increased | Cytotoxicity to HepG2/Dox cells (viability) (HepG2/Dox cells [4]): non-cytotoxic | Fres to doxorubicin (HepG2/Dox cells [4]; doxorubicin + modulator 5 µM): 13.7 | Fsen to doxorubicin (HepG2/Dox cells [4]; doxorubicin + modulator 5 µM): 2.6 | Fres to doxorubicin (HepG2/Dox cells [4]; doxorubicin + modulator 10 µM): 5.0 | Fsen to doxorubicin (reversal fold) (HepG2/Dox cells [4]; doxorubicin + modulator 10 µM): 7.1 | Reversal of resistance of HepG2/Dox cells to paclitaxel and vinblastine (HepG2/Dox cells [4]): completely reversed | Fres to paclitaxel (HepG2/Dox cells [4]; paclitaxel + modulator 5 µM): 3.9 | Fsen to paclitaxel (HepG2/Dox cells [4]; paclitaxel + modulator 5 µM): 33.6 | Fres to paclitaxel (HepG2/Dox cells [4]; paclitaxel + modulator 10 µM): 1.1 | Fsen to paclitaxel (reversal fold) (HepG2/Dox cells [4]; paclitaxel + modulator 10 µM): 118.5 | Fres to vinblastine (HepG2/Dox cells [4]; vinblastine + modulator 5 µM): 1.5 | Fsen to vinblastine (HepG2/Dox cells [4]; vinblastine + modulator 5 µM): 91.5 | Fres to vinblastine (HepG2/Dox cells [4]; vinblastine + modulator 10 µM): 0.7 | Fsen to vinblastine (reversal fold) (HepG2/Dox cells [4]; vinblastine + modulator 10 µM): 198.3 | Expression of caspase 9 (caspase 9; [6]): significantly upregulated | Expression of caspase 9 (caspase 9; [7]): did not change | Fluorescence intensity of Rh-123 in cells (inhibited efflux) (P-gp [5]): significantly increased

CC(O)C1(O)CCC2(O)C3CCC4CC(OC(=O)c5cccnc5)CCC4(C)C3CC(OC(=O)C=Cc3ccccc3)C12C [Compound 1a, 3β,12β,14β,17β,20(S)-pentahydroxy-5α-pregnan-3β-O-nicotinate-12β-O-(E)-cinnamate]
Expression of caspase 8 (caspase 8; [6]): did not change | Expression of caspase 8 (caspase 8; [7]): did not change | Expression level of cellular P-gp (P-gp [1]): did not influence | P-gp substrate status (Caco-2 cell monolayers): not P-gp substrates | Papp B→A at 2 h [2]: 0.24 ± 0.02 ×10⁻⁶ cm/s | Papp A→B at 2 h, 2 μM [2]: 0.27 ×10⁻⁶ cm/s | Papp A→B at 2 h [2]: 0.27 ± 0.03 ×10⁻⁶ cm/s | recovery at 2 h [2, 8]: 5.3 ± 0.5% | recovery at 2 h [2, 9]: 12.2 ± 0.7% | Ka (association rate constant) (Human ABCB1): 41600 M⁻¹ s⁻¹ | Kd (dissociation rate constant) (Human ABCB1): 0.155 s⁻¹ | Kd (Human ABCB1): 3.72 µM | Ka (association rate constant) (Human ABCB1; listed as compound 1a): > 10^4 M^−1s^−1 | koff (Human ABCB1; read-out: Kd (dissociation rate constant)): > 0.1 s⁻¹ | Apoptosis rates of HepG2/Dox cells (HepG2/Dox cells [3]): significantly increased | Cytotoxicity to HepG2/Dox cells (viability) (HepG2/Dox cells [4]): non-cytotoxic | Fres to doxorubicin (HepG2/Dox cells [4]; doxorubicin + modulator 5 µM): 1.9 | Fsen to doxorubicin (HepG2/Dox cells [4]; doxorubicin + modulator 5 µM): 18.8 | Fres to doxorubicin (HepG2/Dox cells [4]; doxorubicin + modulator 10 µM): 4.1 | Fsen to doxorubicin (reversal fold) (HepG2/Dox cells [4]; doxorubicin + modulator 10 µM): 18.8 | Fsen to doxorubicin (reversal fold) (HepG2/Dox cells [4]; doxorubicin + modulator 10 µM, listed as compound 1a): 8.6 | Reversal of resistance of HepG2/Dox cells to paclitaxel and vinblastine (HepG2/Dox cells [4]): completely reversed | Fres to paclitaxel (HepG2/Dox cells [4]; paclitaxel + modulator 5 µM): 0.8 | Fsen to paclitaxel (HepG2/Dox cells [4]; paclitaxel + modulator 5 µM): 155.0 | Fres to paclitaxel (HepG2/Dox cells [4]; paclitaxel + modulator 10 µM): 0.4 | Fsen to paclitaxel (reversal fold) (HepG2/Dox cells [4]; paclitaxel + modulator 10 µM): 335.8 | Fres to vinblastine (HepG2/Dox cells [4]; vinblastine + modulator 5 µM): 1.8 | Fsen to vinblastine (HepG2/Dox cells [4]; vinblastine + modulator 5 µM): 79.3 | Fres to vinblastine (HepG2/Dox cells [4]; vinblastine + modulator 10 µM): 1.0 | Fsen to vinblastine (reversal fold) (HepG2/Dox cells [4]; vinblastine + modulator 10 µM): 140 | Expression of caspase 9 (caspase 9; [6]): significantly upregulated | Expression of caspase 9 (caspase 9; [7]): did not change | Fluorescence intensity of Rh-123 in cells (inhibited efflux) (P-gp [5]): significantly increased

C[C@H]1O[C@@H](O[C@H]2[C@@H](O)C[C@H](O[C@H]3[C@@H](O)C[C@H](O[C@H]4CC[C@@]5(C)[C@H](CC[C@@H]6[C@@H]5C[C@@H](O)[C@]5(C)[C@@H](C7=CC(=O)OC7)CC[C@]65O)C4)O[C@@H]3C)O[C@@H]2C)C[C@H](O)[C@@H]1O [Digoxin, reference compound]
Papp B→A at 2 h [2]: 22.3 ± 1.02 ×10⁻⁶ cm/s | Papp A→B at 2 h [2]: 0.12 ± 0.02 ×10⁻⁶ cm/s | recovery at 2 h [2, 8]: 97.9 ± 8.1% | recovery at 2 h [2, 9]: 94.4 ± 1.9%

COc1cccc2c1C(=O)c1c(O)c3c(c(O)c1C2=O)C[C@@](O)(C(=O)CO)C[C@@H]3O[C@H]1C[C@H](N)[C@H](O)[C@H](C)O1 [Doxorubicin, reference compound]
IC50 (HepG2/Dox cells [4]): 6.03 ± 1.15 µM | Fsen (fold increase in sensitivity) (HepG2/Dox cells [4]): 1 | Fres (fold of resistance) (HepG2/Dox cells [4]): 35.5

CC(=O)O[C@H]1C(=O)[C@@]2(C)[C@H]([C@H](OC(=O)c3ccccc3)[C@]3(O)C[C@H](OC(=O)[C@H](O)[C@@H](NC(=O)c4ccccc4)c4ccccc4)C(C)=C1C3(C)C)[C@]1(OC(C)=O)CO[C@@H]1C[C@@H]2O [Paclitaxel, reference compound]
Expression of caspase 8 (caspase 8; [7]): did not change | Cell apoptosis in HepG2/Dox cells (HepG2/Dox cells [3]; 500 nM alone): did not induce cell apoptosis | IC50 (HepG2/Dox cells [4]): 4.03 ± 0.06 µM | Expression of caspase 9 (caspase 9; [7]): did not change

COc1ccc(CCN(C)CCCC(C#N)(c2ccc(OC)c(OC)c2)C(C)C)cc1OC (stereo not drawn) [VRP, Verapamil, reference compound]
Apoptosis rates of HepG2/Dox cells (HepG2/Dox cells [3]): significantly increased | Fres to doxorubicin (HepG2/Dox cells [4]; doxorubicin + modulator 10 µM): 1.1 | Fres to paclitaxel (HepG2/Dox cells [4]; paclitaxel + modulator 10 µM): 1.3 | Fres to vinblastine (HepG2/Dox cells [4]; vinblastine + modulator 10 µM): 2.1

CC[C@]1(O)C[C@@H]2CN(CCc3c([nH]c4ccccc34)[C@@](C(=O)OC)(c3cc4c(cc3OC)N(C)[C@H]3[C@@](O)(C(=O)OC)[C@H](OC(C)=O)[C@]5(CC)C=CCN6CC[C@]43[C@@H]65)C2)C1 [Vinblastine, reference compound]
IC50 (HepG2/Dox cells [4]): 2.38 ± 0.62 µM | Fsen (fold increase in sensitivity) (HepG2/Dox cells [4]): 1 | Fres (fold of resistance) (HepG2/Dox cells [4]): 140.0 | Fres (fold of resistance) (HepG2/Dox cells [4]; listed as vinblastine): 140
